From patent US20100022798A1, “Ibuprofen amine salts and synthesis thereof” (NATIONAL CENTRAL UNIVERSITY, priority 2008, published 2010)

Assay: pH stability of the ibuprofen amine salt
Format: physicochemical
Conditions: pH range in which the salt is stable, after tested

In the case of `CC(C)Cc1ccc(C(C)C(=O)O)cc1.NC(CO)(CO)CO` (stereo not shown) [ibuprofen amine salt], the stability is reported as “stable between pH 4 and 9”.
